Measurements taken from patent publication US11608335B2, “Somatostatin modulators and uses thereof” (CRINETICS PHARMACEUTICALS, INC., priority 2018, dated 2023).
Where two headings read alike, the source gives them in different places.

What was measured:
[1] = target: T1, Cytochrome P450 (CYP) 2D6 enzyme (Homo sapiens, UniProt P10635); assay: Cytochrome P450 (CYP) 2D6 enzyme time dependent inhibition (TDI) assay; assay type: in vitro ADME; conditions: human liver microsomes
T1 construct: using pooled male and female human liver microsomes; from tissue; host or cells: pooled male and female human liver microsomes
T1 sequence (P10635 whole entry): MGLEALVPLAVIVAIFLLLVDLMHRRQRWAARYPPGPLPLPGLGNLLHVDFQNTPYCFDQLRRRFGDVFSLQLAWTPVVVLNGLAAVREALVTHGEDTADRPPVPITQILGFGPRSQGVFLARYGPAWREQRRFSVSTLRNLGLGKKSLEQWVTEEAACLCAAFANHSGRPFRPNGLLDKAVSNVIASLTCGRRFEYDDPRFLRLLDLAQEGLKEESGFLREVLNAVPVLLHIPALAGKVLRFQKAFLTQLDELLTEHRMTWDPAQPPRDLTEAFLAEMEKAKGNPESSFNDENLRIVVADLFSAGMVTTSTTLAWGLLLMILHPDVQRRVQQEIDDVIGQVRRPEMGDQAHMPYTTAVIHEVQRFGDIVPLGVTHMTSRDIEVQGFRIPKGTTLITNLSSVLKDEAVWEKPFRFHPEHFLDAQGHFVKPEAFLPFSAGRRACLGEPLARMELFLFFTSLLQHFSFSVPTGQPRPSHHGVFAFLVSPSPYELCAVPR
Experimental: Example B-3: Cytochrome P450 (CYP) 2D6 Enzyme Time Dependent Inhibition (TDI) Assay Protocol
The NADPH-generating system mix was composed of potassium phosphate buffer pH 7.4 (50 mM), NADP+ (1 mM), magnesium chloride (3 mM), EDTA (1 mM), glucose-6-phosphate (5 mM), glucose-6-phosphate dehydrogenase (1 Unit/mL), human liver microsomes (0.1 mg/mL) and water. Compounds of interest in DMSO serial diluted to six different concentrations (final DMSO content of 0.1% v/v) were added to the NADPH-generating system. CYP 2D6 substrate Dextromethorphan was added at a final incubation concentration of 5 μM. The final incubation volume was 200 μL. Incubations were conducted at 37° C. for 10 minutes in a shaking water bath to evaluate the drug candidates as […] of CYP 2D6. In a separate test plate, drug candidates were pre-incubated at 37° C. for 30 minutes in a shaking water bath in NADPH-generating system mix in the absence of Dextromethorphan substrate to allow for the formation of metabolites. This plate was removed from the water bath and placed on ice for 5 minutes. Dextromethorphan substrate was then added and the plate was incubated at 37° C. for 10 minutes in a shaking water bath to determine if any metabolites formed during the 30 minute pre-incubation inhibit the CYP 2D6 enzyme. All incubations were terminated by removing 50 μL of incubation mixture and adding to 200 μL of ice cold acetonitrile containing internal standard. Following precipitation by centrifugation at 3500 rpm and 4° C. for 30 minutes, the resultant supernatant were analyzed by using a multiple reaction monitoring (MRM) LC-MS/MS method detecting for internal standard and the CYP 2D6 enzyme mediated Dextromethorphan O-demethylation metabolite Dextrorphan and IC50 values were determined.
(§1) Table E illustrates representative human liver microsomal stability and time dependent CYP2D6 inhibition (TDI) of exemplary compounds.

[2] = Liver microsomal stability assay; assay type: in vitro ADME; conditions: both sexes, human, pooled human liver microsomes; read-out: HLM Stability t½
Experimental: Example B-2: Liver Microsomal Stability Assay Protocol
The in vitro stabilities of compounds of interest were determined for various species using pooled male and female human, pooled male Sprague-Dawley rat, pooled male Cynomolgus monkey, and pooled male Beagle dog liver microsomes at microsomal protein concentrations of 0.5 mg/mL. Incubations were carried out in a potassium phosphate buffer (50 mM). The NADPH-generating system was composed of NADP+ (1 mM), magnesium chloride (3 mM), EDTA (1 mM), glucose-6-phosphate (5 mM) and glucose-6-phosphate dehydrogenase (1 Unit/mL) for all experiments. Compounds of interest in DMSO/acetonitrile were added to achieve a final incubation concentration of 1 μM (final DMSO content was 0.1% v/v and final acetonitrile content was 0.9%). The final incubation volume was 400 μL. Incubations were conducted at 37° C. for 0, 5, 10, 20, 40 and 60 minutes in a shaking water bath and terminated by removing 50 μL of incubation mixture and adding to 100 μL of ice cold acetonitrile containing internal standard. Following precipitation by centrifugation at 3500 rpm and 4° C. for 30 minutes, compounds of interest and internal standard were analyzed in the resultant supernatant using a multiple reaction monitoring (MRM) LC-MS/MS method. MS conditions were optimized for each analyte.
as §1

[3] = target: T2, human somatostatin receptor subtype 2 (Homo sapiens, UniProt P30874); assay: cAMP assay for SST2R (inhibition of cAMP via human SST2 receptor); assay type: cell-based; conditions: Table B, read-out: SST2 potency
T2 construct: expressed in transfected cells
T2 sequence (P30874 whole entry): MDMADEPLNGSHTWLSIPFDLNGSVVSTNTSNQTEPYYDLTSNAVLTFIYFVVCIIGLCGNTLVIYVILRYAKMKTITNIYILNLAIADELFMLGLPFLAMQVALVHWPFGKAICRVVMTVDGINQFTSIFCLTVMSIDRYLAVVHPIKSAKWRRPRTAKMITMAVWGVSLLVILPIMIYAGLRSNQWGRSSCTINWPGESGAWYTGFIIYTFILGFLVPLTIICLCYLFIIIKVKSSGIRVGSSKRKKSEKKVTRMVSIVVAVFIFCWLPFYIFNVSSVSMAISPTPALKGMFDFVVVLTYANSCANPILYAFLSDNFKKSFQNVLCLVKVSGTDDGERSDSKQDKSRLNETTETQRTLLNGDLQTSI
Source text: cAMP Assay Protocol for SST2R:

[4] = target: human somatostatin receptor subtype 5 (Homo sapiens, UniProt P35346); assay: cAMP assay for SST5R (inhibition of cAMP via human SST5 receptor); conditions: for Fold selectivity for SST5 vs SST2: SST5 over SST2, class symbols
Sequence of human somatostatin receptor subtype 5 (P35346 whole entry): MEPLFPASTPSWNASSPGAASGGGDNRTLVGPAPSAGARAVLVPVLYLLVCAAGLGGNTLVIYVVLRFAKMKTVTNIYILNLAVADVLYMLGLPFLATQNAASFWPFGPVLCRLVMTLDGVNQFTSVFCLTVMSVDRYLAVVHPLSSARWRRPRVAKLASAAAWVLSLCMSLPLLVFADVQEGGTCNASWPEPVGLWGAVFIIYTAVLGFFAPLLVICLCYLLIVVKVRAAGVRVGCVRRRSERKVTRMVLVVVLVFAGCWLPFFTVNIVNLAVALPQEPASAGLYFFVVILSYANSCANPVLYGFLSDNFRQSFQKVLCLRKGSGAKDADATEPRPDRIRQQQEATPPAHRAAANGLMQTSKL
Experimental: cAMP Assay Protocol for SST5R:
The cells are cultured at 37° C., 5% CO2 and 95% humidity. […] The cells are incubated for 20 minutes at 37° C. […] The cells are treated with 50 μL of lysis buffer (HRTF cAMP kit, Cisbio) for 30 minutes and then the lysate is diluted to 250 μL with assay buffer. The lysate is transferred to 384-well plates and cAMP detection and visualization antibodies are added and incubated for 1-24 hours at room temperature. The time-resolved fluorescent signal is read with a Tecan M1000Pro multiplate reader. The intracellular cAMP concentrations are calculated by regression to a standard curve and are plotted vs. the concentration of the compounds of the invention and the EC50 of the compounds are calculated using standard methods. All data manipulations are in GraphPad Prism v6 or v7.

[5] = target: T3, human somatostatin receptor subtype 3 (Homo sapiens, UniProt P32745); assay: cAMP assay for SST3R (inhibition of cAMP via human SST3 receptor); assay type: cell-based; conditions: from inhibition of cAMP via human SST5 receptor and human SST3 receptor
T3 construct: expressed in transfected cells
T3 sequence (P32745 whole entry): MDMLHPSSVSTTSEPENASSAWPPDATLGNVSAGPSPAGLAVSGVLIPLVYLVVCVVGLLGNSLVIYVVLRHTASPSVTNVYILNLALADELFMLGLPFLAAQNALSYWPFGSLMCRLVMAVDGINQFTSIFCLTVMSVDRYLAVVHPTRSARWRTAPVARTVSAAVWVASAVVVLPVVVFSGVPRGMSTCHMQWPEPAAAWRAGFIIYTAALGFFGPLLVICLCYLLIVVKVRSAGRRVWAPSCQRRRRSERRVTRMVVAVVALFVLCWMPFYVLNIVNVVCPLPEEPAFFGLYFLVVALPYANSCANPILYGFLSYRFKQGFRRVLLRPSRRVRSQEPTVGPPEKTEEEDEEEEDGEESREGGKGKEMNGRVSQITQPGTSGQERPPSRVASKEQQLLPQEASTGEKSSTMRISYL
Source text: cAMP Assay Protocol for SST3R:

[6] = target: T4, human somatostatin receptor subtype 4 (Homo sapiens, UniProt P31391); assay: cAMP assay for hSST4R (inhibition of cAMP via human SST4 receptor); assay type: cell-based; conditions: from inhibition of cAMP via human SST5 receptor and human SST4 receptor
T4 construct: expressed in transfected cells
T4 sequence (P31391 whole entry): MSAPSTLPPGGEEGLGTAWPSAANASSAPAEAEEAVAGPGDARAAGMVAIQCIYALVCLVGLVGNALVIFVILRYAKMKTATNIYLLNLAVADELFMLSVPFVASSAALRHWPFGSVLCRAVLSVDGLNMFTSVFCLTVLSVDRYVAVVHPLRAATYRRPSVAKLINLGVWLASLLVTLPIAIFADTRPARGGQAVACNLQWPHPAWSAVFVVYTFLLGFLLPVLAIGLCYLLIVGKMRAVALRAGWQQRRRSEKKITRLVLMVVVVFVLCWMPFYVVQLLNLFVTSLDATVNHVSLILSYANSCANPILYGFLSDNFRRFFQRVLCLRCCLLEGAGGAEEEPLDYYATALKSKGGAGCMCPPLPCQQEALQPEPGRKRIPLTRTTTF
Source text: cAMP Assay Protocol hSST4R:

[7] = t = 0 min pre-incubation, read-out: CYP2D6 inhibition, IC50 (μM) t = 0 min
[8] = t = 30 min pre-incubation, read-out: CYP2D6 inhibition, IC50 (μM) t = 30 min
[9] = read-out: SST5 potency, inhibition of cAMP via human SST5 receptor, Table B

Compound	IC50 [1, 7] [µM]	IC50 [1, 8] [µM]	half-life at 1 μM [2] [h]	EC50 [3] [nM]	EC50 [4] [nM]	Fold selectivity for SST5 vs SST2 [4]	EC50 [4, 9] [nM]	Fold selectivity for SST5 vs SST3 [5] [fold]	Fold selectivity for SST5 vs SST4 [6] [fold]
Cc1cccc2[nH]c(-c3cncc(-c4cc(F)cc(C#N)c4)c3N3CC[C@H](N)C3)nc12 [Compound 2-34, 3-{4-[(3S)-3-aminopyrrolidin-1-yl]-5-(4-methyl-1H-1,3-benzodiazol-2-yl)pyridin-3-yl}-5-fluorobenzonitrile]	> 10	> 10	> 11.6	–	–	–	–	–	–
Cc1ccnc2[nH]c(-c3cncc(-c4ccc(F)c(C#N)c4)c3N3CC[C@](C)(N)C3)nc12 [Compound 2-154, 5-{4-[(3S)-3-amino-3-methylpyrrolidin-1-yl]-5-{7-methyl-1H-imidazo[4,5-b]pyridin-2-yl}pyridin-3-yl}-2-fluorobenzonitrile]	> 10	> 10	> 11.6	10 to 100	< 10	++ (++=100 to 499)	< 10	118	–
C[C@]1(N)CCN(c2c(-c3ccnc(C#N)c3)cncc2-c2nc3c(F)cccc3[nH]2)C1 [Compound 2-162, 4-[(3S)-3-amino-3-methylpyrrolidin-1-yl]-5-(4-fluoro-1H-1,3-benzodiazol-2-yl)-[3,4′-bipyridine]-2′-carbonitrile]	> 10	> 10	> 11.6	100 to 1000	< 10	+++ (+++=≥500)	< 10	517	109
Cc1cc(-c2cncc(-c3nc4c(F)cccc4[nH]3)c2N2CC[C@](C)(N)C2)ccn1 [Compound 2-178, (3S)-1-[5-(4-fluoro-1H-1,3-benzodiazol-2-yl)-2′-methyl-[3,4′-bipyridin]-4-yl]-3-methylpyrrolidin-3-amine]	> 10	9.7	3.85	> 1000	< 10	++ (++=100 to 499)	< 10	147	–
COc1cc(-c2cncc(-c3nc4c(F)cccc4[nH]3)c2N2CC[C@](C)(N)C2)ccn1 [Compound 2-187, (3S)-1-[5-(4-fluoro-1H-1,3-benzodiazol-2-yl)-2′-methoxy-[3,4′-bipyridin]-4-yl]-3-methylpyrrolidin-3-amine]	> 10	2.9	0.683	100 to 1000	< 10	++ (++=100 to 499)	< 10	93	–
Cc1cc(-c2cncc(-c3nc4nccc(C)c4[nH]3)c2N2CC[C@](C)(N)C2)ccc1F [Compound 2-188, (3S)-1-[3-(4-fluoro-3-methylphenyl)-5-{7-methyl-1H-imidazo[4,5-b]pyridin-2-yl}pyridin-4-yl]-3-methylpyrrolidin-3-amine]	> 10	8.7	0.55	100 to 1000	< 10	++ (++=100 to 499)	< 10	16	–
COc1cc(-c2cncc(-c3nc4nccc(C)c4[nH]3)c2N2CC[C@](C)(N)C2)ccc1F [Compound 2-189, (3S)-1-[3-(4-fluoro-3-methoxyphenyl)-5-{7-methyl-1H-imidazo[4,5-b]pyridin-2-yl}pyridin-4-yl]-3-methylpyrrolidin-3-amine]	> 10	> 10	> 11.6	10 to 100	< 10	++ (++=100 to 499)	< 10	27	–
Cc1ccnc2nc(-c3cncc(-c4ccc(F)c(F)c4)c3N3CC[C@](C)(N)C3)[nH]c12 [Compound 2-190, (3S)-1-[3-(3,4-difluorophenyl)-5-{7-methyl-1H-imidazo[4,5-b]pyridin-2-yl}pyridin-4-yl]-3-methylpyrrolidin-3-amine]	> 10	> 10	2.32	10 to 100	< 10	+ (+=10 to 99)	< 10	16	–
C[C@]1(N)CCN(c2c(-c3cccc(C#N)c3)cncc2-c2nc3c(F)cccc3[nH]2)C1 [Compound 2-200, 3-{4-[(3S)-3-amino-3-methylpyrrolidin-1-yl]-5-(4-fluoro-1H-1,3-benzodiazol-2-yl)pyridin-3-yl}benzonitrile]	–	–	–	100 to 1000	< 10	+++ (+++=≥500)	< 10	159	136

More lines, in order of falling IC50 [1, 7], values ahead:

IC50 [1, 7] [µM]	IC50 [1, 8] [µM]	half-life at 1 μM [2] [h]	EC50 [3] [nM]	EC50 [4] [nM]	Fold selectivity for SST5 vs SST2 [4]	EC50 [4, 9] [nM]	Fold selectivity for SST5 vs SST3 [5] [fold]	Fold selectivity for SST5 vs SST4 [6] [fold]	Compound
7.6	6.5	0.883	100 to 1000	< 10	++ (++=100 to 499)	< 10	6.3	0.94	Cc1cc(F)cc(-c2cncc(-c3nc4cccc(C)c4[nH]3)c2N2CC[C@H](N)C2)c1 [Compound 2-182, (3S)-1-[3-(3-fluoro-5-methylphenyl)-5-(4-methyl-1H-1,3-benzodiazol-2-yl)pyridin-4-yl]pyrrolidin-3-amine]
5.7	5.1	2.32	100 to 1000	< 10	+++ (+++=≥500)	< 10	24	–	Cc1ccnc2nc(-c3cncc(-c4ccc(F)c(C(F)(F)F)c4)c3N3CC[C@](C)(N)C3)[nH]c12 [Compound 2-191, (3S)-1-{3-[4-fluoro-3-(trifluoromethyl)phenyl]-5-{7-methyl-1H-imidazo[4,5-b]pyridin-2-yl}pyridin-4-yl}-3-methylpyrrolidin-3-amine]
5.4	1.1	5.78	100 to 1000	< 10	+++ (+++=≥500)	< 10	158	–	C[C@]1(N)CCN(c2c(-c3ccnc(C(F)(F)F)c3)cncc2-c2nc3c(F)cccc3[nH]2)C1 [Compound 2-186, (3S)-1-[5-(4-fluoro-1H-1,3-benzodiazol-2-yl)-2′-(trifluoromethyl)-[3,4′-bipyridin]-4-yl]-3-methylpyrrolidin-3-amine]
4.2	4.7	1.65	10 to 100	< 10	++ (++=100 to 499)	< 10	18	–	Cc1ccnc2nc(-c3cncc(-c4ccc(F)c(Cl)c4)c3N3CC[C@](C)(N)C3)[nH]c12 [Compound 2-192, (3S)-1-[3-(3-chloro-4-fluorophenyl)-5-{7-methyl-1H-imidazo[4,5-b]pyridin-2-yl}pyridin-4-yl]-3-methylpyrrolidin-3-amine]
